Reference: US20210214303A1, “SCORPION VENOM BENZOQUINONE DERIVATIVES AND USES THEREOF” (priority 2018, published 2021)
≈ marks a conversion by molar mass, not a printed value. Entries after “also recorded” stand apart in the source; their conditions may differ.

How the values were obtained:
[1] = tested on: Mycobacterium tuberculosis Multi-Drug-Resistance (MDR) CIBIN99 strain; assay: experimental model of progressive pulmonary tuberculosis; set-up: species or system BALB/c mice; settings: mouse, in vivo
[2] = tested on: Mycobacterium tuberculosis multi-drug resistant (MDR) strain; assay: microbe, parasite or virus in culture; format: cell-based

Compound	condition of infected mice / overall effect [1]	reduction of pneumonia (automated histomorphometry, lung surface affected by pneumonia) [1]	tissue damage (pneumonia), histology [1]	MIC [2]
COC1=CC(=O)C(SC)=C(SC)C1=O [blue 1,4 benzoquinone, 5-methoxy-2,3-bis(methylthio)cyclohexa-2,5-diene-1,4-dione]	effective in vivo; also recorded: improvement by not losing weight and not showing piloerection; also recorded: marked improvement in their condition	50%	less pneumonia; also recorded: clear decrease in tissue damage; also recorded: twofold decrease	4 µg/mL (≈ 17.4 µM)
COC1=CC(=O)C(SC)=C(OC)C1=O [red 1,4 benzoquinone, 3,5-dimethoxy-2-(methylthio)cyclohexa-2,5-diene-1,4-dione]	–	–	–	> 160 µg/mL
